Measurements: US11179348B2, “Combination comprising pterostilbene for the treatment of cancer” (FUNDACIÓN UNIVERSIDAD CATÓLICA DE VALENCIA SAN VICENTE …, priority 2015, dated 2021)
Marks after values point to notes of the source that are not given here.

Assay: Hematology, clinical chemistry and urinary balance in tumor-bearing mice treated with Pter
Type: in vivo
Conditions: Pter 30 mg/kg i.v.

With COc1cc(/C=C/c2ccc(O)cc2)cc(OC)c1 [Pter, trans-3,5-dimethoxy-4′-hydroxystilbene] the “% CD3” value (A2058-bearing mice, day 35) was 1.2 ± 0.2%, the Alanine aminotransferase (A2058-bearing mice, day 35) was 7.0 ± 1.6 IU/L and the Albumin (A2058-bearing mice, day 35) was 2.9 ± 0.6 g/dL. For the same molecule, the Alkaline phosphatase (A2058-bearing mice, day 35) was 140 ± 21 IU/L, the Aspartate aminotransferase (A2058-bearing mice, day 35) was 140 ± 27 IU/L and the B cells (A2058-bearing mice, day 35) was 63.4 ± 7.7. For the same molecule, the Basophils (A2058-bearing mice, day 35) was 0.0 ± 0.0 10^3/μL, the CD4 (A2058-bearing mice, day 35) was 0.9 ± 0.1 and the CD8 (A2058-bearing mice, day 35) was 0.4 ± 0.05. The Chloride (A2058-bearing mice, day 35) was 99 ± 10 mEq/L, the Creatinine (A2058-bearing mice, day 35) was 0.5 ± 0.1 mg/dL and the Direct bilirubin (A2058-bearing mice, day 35) was 0.1 ± 0.03 mg/dL. The Eosinophils (A2058-bearing mice, day 35) was 0.05 ± 0.02 10^3/μL, the Erythrocytes (A2058-bearing mice, day 35) was 7.0 ± 0.2^† 10^6/μL and the GGT (A2058-bearing mice, day 35) was 2.0 ± 0.5 IU/L. For the same molecule, the Glucose (A2058-bearing mice, day 35) was 157 ± 19 mg/dL, the Hematocrit (A2058-bearing mice, day 35) was 34.4 ± 3.0% and the Hemoglobin (A2058-bearing mice, day 35) was 12.1 ± 0.4 g/dL. For the same molecule, the “Isolated CD2^+ lymphocytes: Cell volume” value (A2058-bearing mice, day 35) was 164 ± 15 μm^3, the “Isolated CD2^+ lymphocytes: GSH” value (A2058-bearing mice, day 35) was 4.3 ± 0.5 nmol/10^6 cells and the “Isolated CD2^+ lymphocytes: Glucose utilization” value (A2058-bearing mice, day 35) was 1.24 ± 0.08 µmol/g/min. The “Isolated CD2^+ lymphocytes: Glutamine utilization” value (A2058-bearing mice, day 35) was 3.35 ± 0.32 µmol/g/min, the “Isolated hepatocytes: Cell volume” value (A2058-bearing mice, day 35) was 2.9 ± 0.2 μL/mg dry wt and the “Isolated hepatocytes: GSH” value (A2058-bearing mice, day 35) was 4760 ± 377 nmol/g of cells. The “Isolated hepatocytes: Glucose utilization” value (A2058-bearing mice, day 35) was 1.57 ± 0.12 µmol/g/min, the Lactate dehydrogenase (A2058-bearing mice, day 35) was 251 ± 38 IU/L and the Leukocytes (A2058-bearing mice, day 35) was 2.2 ± 0.4 10^3/μL. For the same molecule, the Lymphocytes (A2058-bearing mice, day 35) was 1.3 ± 0.2 10^3/μL, the Monocytes (A2058-bearing mice, day 35) was 0.04 ± 0.02* 10^3/μL and the NK (A2058-bearing mice, day 35) was 4.1 ± 1.5. The Neutrophils (A2058-bearing mice, day 35) was 0.8 ± 0.2 10^3/μL, the Plasma osmolality (A2058-bearing mice, day 35) was 278 ± 15 mOsm/kg and the Platelets (A2058-bearing mice, day 35) was 393 ± 36 10^3/μL. The Potassium (A2058-bearing mice, day 35) was 7.7 ± 1.6 mEq/L, the Sodium (A2058-bearing mice, day 35) was 152 ± 20 mEq/L and the Total bilirubin (A2058-bearing mice, day 35) was 0.5 ± 0.1 mg/dL. The Total protein (A2058-bearing mice, day 35) was 3.9 ± 0.5 g/dL, the Urea (A2058-bearing mice, day 35) was 50.4 ± 3.1 mg/dL and the Uric acid (A2058-bearing mice, day 35) was 1.8 ± 0.4 mg/dL. The “Urinary balance: Bilirubin” value (A2058-bearing mice, day 35) was “Negative”, the “Urinary balance: Erythrocytes” value (A2058-bearing mice, day 35) was “Negative” and the “Urinary balance: GFR” value (A2058-bearing mice, day 35) was 167 ± 30 µL/min. The “Urinary balance: Glucose” value (A2058-bearing mice, day 35) was “Normal”, the “Urinary balance: Ketones” value (A2058-bearing mice, day 35) was “Negative” and the “Urinary balance: Leukocytes” value (A2058-bearing mice, day 35) was “Negative”. The “Urinary balance: Nitrite” value (A2058-bearing mice, day 35) was “Negative”, the “Urinary balance: Protein” value (A2058-bearing mice, day 35) was 0.2 g/L and the “Urinary balance: Urobilinogen” value (A2058-bearing mice, day 35) was “Normal”. The “Urinary balance: pH” value (A2058-bearing mice, day 35) was 7.7 ± 0.5, the “% CD3” value (AsPC-1-bearing mice, day 28) was 0.9 ± 0.3% and the Alanine aminotransferase (AsPC-1-bearing mice, day 28) was 13.2 ± 3.5 IU/L. The Albumin (AsPC-1-bearing mice, day 28) was 3.0 ± 0.6 g/dL, the Alkaline phosphatase (AsPC-1-bearing mice, day 28) was 147 ± 18 IU/L and the Aspartate aminotransferase (AsPC-1-bearing mice, day 28) was 166 ± 27 IU/L. The B cells (AsPC-1-bearing mice, day 28) was 71.4 ± 11.4, the Basophils (AsPC-1-bearing mice, day 28) was 0.0 ± 0.0 10^3/μL and the CD4 (AsPC-1-bearing mice, day 28) was 0.8 ± 0.1. It also gave a CD8 (AsPC-1-bearing mice, day 28) of 0.2 ± 0.1, a Chloride (AsPC-1-bearing mice, day 28) of 106 ± 9 mEq/L and a Creatinine (AsPC-1-bearing mice, day 28) of 0.5 ± 0.1 mg/dL. For the same molecule, the Direct bilirubin (AsPC-1-bearing mice, day 28) was 0.1 ± 0.03 mg/dL, the Eosinophils (AsPC-1-bearing mice, day 28) was 0.04 ± 0.02 10^3/μL and the Erythrocytes (AsPC-1-bearing mice, day 28) was 6.2 ± 0.1^† 10^6/μL. It also gave a GGT (AsPC-1-bearing mice, day 28) of 2.3 ± 0.4 IU/L, a Glucose (AsPC-1-bearing mice, day 28) of 136 ± 20 mg/dL and a Hematocrit (AsPC-1-bearing mice, day 28) of 30.1 ± 1.5 %. The Hemoglobin (AsPC-1-bearing mice, day 28) was 12.0 ± 0.3 g/dL, the “Isolated CD2^+ lymphocytes: Cell volume” value (AsPC-1-bearing mice, day 28) was 177 ± 14 μm^3 and the “Isolated CD2^+ lymphocytes: GSH” value (AsPC-1-bearing mice, day 28) was 4.2 ± 0.6 nmol/10^6 cells. The “Isolated CD2^+ lymphocytes: Glucose utilization” value (AsPC-1-bearing mice, day 28) was 1.23 ± 0.15 µmol/g/min, the “Isolated CD2^+ lymphocytes: Glutamine utilization” value (AsPC-1-bearing mice, day 28) was 3.40 ± 0.12 µmol/g/min and the “Isolated hepatocytes: Cell volume” value (AsPC-1-bearing mice, day 28) was 3.0 ± 0.3 μL/mg dry wt. The “Isolated hepatocytes: GSH” value (AsPC-1-bearing mice, day 28) was 4420 ± 444 nmol/g of cells, the “Isolated hepatocytes: Glucose utilization” value (AsPC-1-bearing mice, day 28) was 1.50 ± 0.13 µmol/g/min and the Lactate dehydrogenase (AsPC-1-bearing mice, day 28) was 288 ± 30 IU/L. For the same molecule, the Leukocytes (AsPC-1-bearing mice, day 28) was 1.9 ± 0.3* 10^3/μL, the Lymphocytes (AsPC-1-bearing mice, day 28) was 1.1 ± 0.2 10^3/μL and the Monocytes (AsPC-1-bearing mice, day 28) was 0.05 ± 0.02 10^3/μL. The NK (AsPC-1-bearing mice, day 28) was 2.7 ± 1.1, the Neutrophils (AsPC-1-bearing mice, day 28) was 0.6 ± 0.2^† 10^3/μL and the Plasma osmolality (AsPC-1-bearing mice, day 28) was 278 ± 16 mOsm/kg. For the same molecule, the Platelets (AsPC-1-bearing mice, day 28) was 312 ± 55^† 10^3/μL, the Potassium (AsPC-1-bearing mice, day 28) was 8.9 ± 1.7 mEq/L and the Sodium (AsPC-1-bearing mice, day 28) was 149 ± 14 mEq/L. For the same molecule, the Total bilirubin (AsPC-1-bearing mice, day 28) was 0.5 ± 0.1 mg/dL, the Total protein (AsPC-1-bearing mice, day 28) was 3.5 ± 0.5 g/dL and the Urea (AsPC-1-bearing mice, day 28) was 52.4 ± 5.7 mg/dL. The Uric acid (AsPC-1-bearing mice, day 28) was 1.6 ± 0.3 mg/dL, the “Urinary balance: Bilirubin” value (AsPC-1-bearing mice, day 28) was “Negative” and the “Urinary balance: Erythrocytes” value (AsPC-1-bearing mice, day 28) was “Negative”. The “Urinary balance: GFR” value (AsPC-1-bearing mice, day 28) was 186 ± 17 µL/min, the “Urinary balance: Glucose” value (AsPC-1-bearing mice, day 28) was “Normal” and the “Urinary balance: Ketones” value (AsPC-1-bearing mice, day 28) was “Negative”. For the same molecule, the “Urinary balance: Leukocytes” value (AsPC-1-bearing mice, day 28) was “Negative”, the “Urinary balance: Nitrite” value (AsPC-1-bearing mice, day 28) was “Negative” and the “Urinary balance: Protein” value (AsPC-1-bearing mice, day 28) was 0.3 g/L. The “Urinary balance: Urobilinogen” value (AsPC-1-bearing mice, day 28) was “Normal” and the “Urinary balance: pH” value (AsPC-1-bearing mice, day 28) was 7.7 ± 0.4.
